Measured values taken from patent US20240376085A1 (Janssen Pharmaceutica NV, priority 2021, published 2024).

Legend:
[1] = target: T1, IL-17A : IL-17RA binding (Homo sapiens, UniProt Q16552, K93Q); assay: IL-17A(FLAG-tagged):IL-17RA(His-tagged) binding disruption Eu-HTRF assay, Protocol 1; settings: FLAG-IL-17A 2.5 nM at 2x final concentration; average if tested more than once
T1 construct: Name: IL-17A-Flag
How it was run: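 IC50 came from a one-site competition fit of the acceptor/donor (665/620 nm) HTRF ratio. His-tagged IL-17RA, Eu-anti-FLAG and D2-anti-His were added after a 1 h rt compound preincubation with FLAG-tagged IL-17A dimer in PBS/0.01% Triton X-100, followed by 2 h at rt before reading.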

[2] = tested on: IL-17A-induced G-CSF production in human normal keratinocyte (NHK); assay: NHK assay: IL-17A-induced G-CSF production in normal human keratinocytes; format: cell-based; settings: 24 h, IL-17A 5 ng/mL, average if tested more than once
How it was run: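 Compound titrations are first mixed with recombinant human IL-17A for 1 h at room temperature. The mixture goes onto adult normal human keratinocytes (final IL-17A 5 ng/mL, 5% FBS, 0.2% DMSO) for 24 h at 37 °C. Secreted G-CSF is then measured by HTRF and IC50 fitted.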

[3] = target: T1, IL-17A : IL-17RA binding; assay: IL-17A(FLAG-tagged):IL-17RA(His-tagged) binding disruption Eu-HTRF assay, Protocol 2; settings: FLAG-IL-17A 1 nM at 2x final concentration; average if tested more than once
Excerpt: An antibody directed against the FLAG tag of IL-17A (SEQ ID NO: 1) is labeled with the HTRF donor chromophore (Europium-cryptate). IL-17A is present as a dimer that is “locked into” this quaternary structure due to the formation of loop-spanning […] disulfide bridges. The construct of IL-17RA used in the assay excludes the […] portion of the receptor and is fused to a C-terminal 10×His tag (SEQ ID NO:2). An antibody directed against the His tag of the IL-17RA chimera is labeled with the HTRF acceptor chromophore (“D2”). The fluorescence-resonance energy transfer (FRET) depends on the vicinity of the donor chromophore to the acceptor, and interruption of the binding between the IL-17A and IL-17RA causes the reduction/loss of FRET. Therefore, this assay allows to evaluate the compound effect on the binding IL-17A and IL-17RA by monitoring the fluorescence intensity of donor vs acceptor. The assay was run using either Protocol 1 or Protocol 2 as described below.
Protocol 2. 40 nl of 2-fold serial diluted compound solution for total 22 dilution points is added into each well of a 1536-well, white, low-volume, non-binding plate (Greiner #782904), then 2 μl of FLAG tagged IL-17A at 2× final concentration (1 nM) in solution of PBS+0.01% Triton-X100 is added to each well. The assay plate is briefly centrifuged then incubated for 1 h at rt. A mixed solution is prepared containing 2×5 nM 10HIS×IL-17RA, 2×2.5 nM Eu-anti-FLAG (CISBIO), 2×5 nM D2-anti-HIS (CISBIO) in PBS+0.01% Triton-X100+200 mM Potassium Fluoride (Sigma 60238) and 2 μl of mix is added to each well of the assay plate. The plate is briefly centrifuged then incubated for 2 h at rt. The HTRF intensities at the wavelength of donor (615 nm) and acceptor (665 nm) are measured using BMG Pherastar. The ratio between intensities at two wavelengths is calculated and plotted against the compound concentration and the data is fitted to a one-site competition model to yield IC50 of the compound.

T1 sequence (Q16552 with tags, fused parts or gaps K93Q): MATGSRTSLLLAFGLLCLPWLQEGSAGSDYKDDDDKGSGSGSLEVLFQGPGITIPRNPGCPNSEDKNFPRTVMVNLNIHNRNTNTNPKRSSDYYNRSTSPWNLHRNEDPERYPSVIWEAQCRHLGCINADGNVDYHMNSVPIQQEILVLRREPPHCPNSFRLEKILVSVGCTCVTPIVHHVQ

CC(C)n1nccc1C(=O)N[C@H](c1nc2ccc([C@H](NC(=O)CC3CC(F)(F)C3)C3CC3)cc2[nH]1)[C@@H]1C[C@H]2C[C@H]2C1 [Example 255, N—((S)-((1R,3s,5S)-Bicyclo[3.1.0]hexan-3-yl)(6-((R)-cyclopropyl(2-(3,3-difluorocyclobutyl)acetamido)methyl)-1H-benzo[d]imidazol-2-yl)methyl)-1-isopropyl-1H-pyrazole-5-carboxamide] gave an IC50 [1] of 50 to 100 nM and an IC50 ([2]; Homo sapiens, Keratinocyte) of under 50 nM.

Work on Cc1nonc1C(=O)N[C@@H](COC1CC(F)(F)C1)c1nc2ccc([C@H](NC(=O)CC3CC(F)(F)C3)C3CC3)cc2[nH]1 [Example 256, N—((R)-1-(6-((R)-Cyclopropyl(2-(3,3-difluorocyclobutyl)acetamido)methyl)-1H-benzo[d]imidazol-2-yl)-2-(3,3-difluorocyclobutoxy)ethyl)-4-methyl-1,2,5-oxadiazole-3-carboxamide] yielded an IC50 [1] of over 100 nM and an IC50 ([2]; Homo sapiens, Keratinocyte) of over 100 nM.

CC(C)n1nccc1C(=O)N[C@@H](COC1CC(F)(F)C1)c1nc2ccc([C@H](NC(=O)CC3CC(F)(F)C3)C3CC3)cc2[nH]1 [Example 257, N—((R)-1-(6-((R)-Cyclopropyl(2-(3,3-difluorocyclobutyl)acetamido)methyl)-1H-benzo[d]imidazol-2-yl)-2-(3,3-difluorocyclobutoxy)ethyl)-1-isopropyl-1H-pyrazole-5-carboxamide] gave an IC50 [1] of over 100 nM and an IC50 ([2]; Homo sapiens, Keratinocyte) of over 100 nM.

Cc1nonc1C(=O)N[C@H](c1nc2cc([C@H](NC(=O)CCC(F)(F)F)C3CC3)ccc2[nH]1)[C@@H]1CCCC(F)(F)C1 [Example 263, N—((S)-(5-((R)-Cyclopropyl(4,4,4-trifluorobutanamido)methyl)-1H-benzo[d]imidazol-2-yl)((R)-3,3-difluorocyclohexyl)methyl)-4-methyl-1,2,5-oxadiazole-3-carboxamide] was tested, and the IC50 [1] was under 50 nM and the IC50 ([2]; Homo sapiens, Keratinocyte) was 50 to 100 nM.

Cc1nonc1C(=O)N[C@H](c1nc2cc([C@@H](C)NC(=O)CCC(F)(F)F)ccc2[nH]1)[C@@H]1CCCC(F)(F)C1 [Example 264, N—((S)—((R)-3,3-Difluorocyclohexyl)(5-((R)-1-(4,4,4-trifluorobutanamido)ethyl)-1H-benzo[d]imidazol-2-yl)methyl)-4-methyl-1,2,5-oxadiazole-3-carboxamide] gave an IC50 [1] of under 50 nM and an IC50 ([2]; Homo sapiens, Keratinocyte) of over 100 nM.

With C[C@@H](NC(=O)CCC(F)(F)F)c1ccc2[nH]c([C@@H](NC(=O)c3cnn(CCC(F)(F)F)n3)[C@@H]3CCCC(F)(F)C3)nc2c1 [Example 265] the IC50 [1] was over 100 nM and the IC50 ([2]; Homo sapiens, Keratinocyte) was over 100 nM.

In the case of O=C(CC1CC(F)(F)C1)N[C@@H](c1ccc2[nH]c([C@@H](NC(=O)c3nonc3C3CC3)[C@H]3[C@@H]4CC(F)(F)C[C@@H]43)nc2c1)C1CC1 [Example 266, 4-Cyclopropyl-N—((S)-(5-((R)-cyclopropyl(2-(3,3-difluorocyclobutyl)acetamido)methyl)-1H-benzo[d]imidazol-2-yl)((1R,5S,6r)-3,3-difluorobicyclo[3.1.0]hexan-6-yl)methyl)-1,2,5-oxadiazole-3-carboxamide], the IC50 [1] is reported as under 50 nM and the IC50 ([2]; Homo sapiens, Keratinocyte) is reported as under 50 nM.

Compound CC(C)(OC[C@H](NC(=O)c1nonc1OCC(F)(F)F)c1nc2cc([C@H](NC(=O)CC3CC(F)(F)C3)C3CC3)ccc2[nH]1)C(F)(F)F [Example 267, N—((R)-1-(5-((R)-Cyclopropyl(2-(3,3-difluorocyclobutyl)acetamido)methyl)-1H-benzo[d]imidazol-2-yl)-2-((1,1,1-trifluoro-2-methylpropan-2-yl)oxy)ethyl)-4-(2,2,2-trifluoroethoxy)-1,2,5-oxadiazole-3-carboxamide] has an IC50 [1] of under 50 nM and an IC50 ([2]; Homo sapiens, Keratinocyte) of under 50 nM.

Compound CC(C)(OC[C@H](NC(=O)c1nocc1C1CC1)c1nc2cc([C@H](NC(=O)CC3CC(F)(F)C3)C3CC3)ccc2[nH]1)C(F)(F)F [Example 268, 4-Cyclopropyl-N—((R)-1-(5-((R)-cyclopropyl(2-(3,3-difluorocyclobutyl)acetamido)methyl)-1H-benzo[d]imidazol-2-yl)-2-((1,1,1-trifluoro-2-methylpropan-2-yl)oxy)ethyl)isoxazole-3-carboxamide] has an IC50 [1] of under 50 nM and an IC50 ([2]; Homo sapiens, Keratinocyte) of 50 to 100 nM.

C[C@@H](O[C@H](C)C(F)(F)F)[C@H](NC(=O)c1nonc1C1CC1)c1nc2ccc([C@H](NC(=O)C[C@H]3CC3(F)F)C3(C#N)CC3)cc2[nH]1 [Example 269, N-((1R,2R)-1-(6-((S)-(1-Cyanocyclopropyl)(2-((S)-2,2-difluorocyclopropyl)acetamido)methyl)-1H-benzo[d]imidazol-2-yl)-2-(((R)-1,1,1-trifluoropropan-2-yl)oxy)propyl)-4-cyclopropyl-1,2,5-oxadiazole-3-carboxamide] was tested, and the IC50 [1] was under 50 nM and the IC50 ([2]; Homo sapiens, Keratinocyte) was under 50 nM.

With Cc1nonc1C(=O)N[C@H](c1nc2cc([C@@H](COC3CC3)NC(=O)C[C@H]3CC3(F)F)ccc2[nH]1)[C@@H](C)OC(C)(C)C(F)(F)F [Example 270, N-((1R,2R)-1-(5-((S)-2-Cyclopropoxy-1-(2-((S)-2,2-difluorocyclopropyl)acetamido)ethyl)-1H-benzo[d]imidazol-2-yl)-2-((1,1,1-trifluoro-2-methylpropan-2-yl)oxy)propyl)-4-methyl-1,2,5-oxadiazole-3-carboxamide] the IC50 [3] was 50 to 100 nM and the IC50 ([2]; Homo sapiens, Keratinocyte) was 50 to 100 nM.

Cc1nonc1C(=O)N[C@H](c1nc2cc([C@@H](COC3CC3)NC(=O)CC3CC(F)(F)C3)ccc2[nH]1)[C@@H](C)OC(C)(C)C(F)(F)F [Example 271, N-((1R,2R)-1-(5-((S)-2-Cyclopropoxy-1-(2-(3,3-difluorocyclobutyl)acetamido)ethyl)-1H-benzo[d]imidazol-2-yl)-2-((1,1,1-trifluoro-2-methylpropan-2-yl)oxy)propyl)-4-methyl-1,2,5-oxadiazole-3-carboxamide] gave an IC50 [3] of 50 to 100 nM and an IC50 ([2]; Homo sapiens, Keratinocyte) of under 50 nM.

For Cc1nonc1C(=O)N[C@H](c1nc2cc([C@@H](COC3CC3)NC(=O)CC3CC(F)(F)C3)ccc2[nH]1)[C@@H](C)O[C@@H](C)C(F)(F)F [Example 272, N-((1R,2R)-1-(5-((S)-2-Cyclopropoxy-1-(2-(3,3-difluorocyclobutyl)acetamido)ethyl)-1H-benzo[d]imidazol-2-yl)-2-(((S)-1,1,1-trifluoropropan-2-yl)oxy)propyl)-4-methyl-1,2,5-oxadiazole-3-carboxamide], the IC50 [3] was over 100 nM and the IC50 ([2]; Homo sapiens, Keratinocyte) was under 50 nM.

In the case of CC(C)n1nccc1C(=O)N[C@H](c1nc2cc([C@@H](COC3CC3)NC(=O)CC3CC(F)(F)C3)ccc2[nH]1)[C@@H](C)O[C@@H](C)C(F)(F)F [Example 273, N-((1R,2R)-1-(5-((S)-2-Cyclopropoxy-1-(2-(3,3-difluorocyclobutyl)acetamido)ethyl)-1H-benzo[d]imidazol-2-yl)-2-(((S)-1,1,1-trifluoropropan-2-yl)oxy)propyl)-1-isopropyl-1H-pyrazole-5-carboxamide], the IC50 [3] is reported as over 100 nM and the IC50 ([2]; Homo sapiens, Keratinocyte) is reported as under 50 nM.

In the case of Cc1nonc1C(=O)N[C@H](c1nc2cc([C@@H](COC3CC3)NC(=O)CC3CC(F)(F)C3)ccc2[nH]1)[C@@H](C)O[C@@H](C)C(F)(F)F [Example 274, N-((1R,2R)-1-(5-((S)-2-Cyclopropoxy-1-(2-(3,3-difluorocyclobutyl)acetamido)ethyl)-1H-benzo[d]imidazol-2-yl)-2-(((S)-1,1,1-trifluoropropan-2-yl)oxy)propyl)-4-methyl-1,2,5-oxadiazole-3-carboxamide], the IC50 [3] is reported as 50 to 100 nM and the IC50 [2] is reported as 50 to 100 nM.

For Cc1nonc1C(=O)N[C@H](c1nc2cc([C@@H](COC3CC3)NC(=O)C[C@H]3CC3(F)F)ccc2[nH]1)[C@@H](C)O[C@H](C)C(F)(F)F [Example 275, N-((1R,2R)-1-(5-((S)-2-Cyclopropoxy-1-(2-((S)-2,2-difluorocyclopropyl)acetamido)ethyl)-1H-benzo[d]imidazol-2-yl)-2-(((R)-1,1,1-trifluoropropan-2-yl)oxy)propyl)-4-methyl-1,2,5-oxadiazole-3-carboxamide], the IC50 [3] was 50 to 100 nM and the IC50 ([2]; Homo sapiens, Keratinocyte) was 50 to 100 nM.
